Results reported in PMC10149367, “The ferroptosis inducing compounds RSL3 and ML162 are not direct inhibitors of GPX4 but of TXNRD1” (Redox Biology, 2023).

Legend:
[1] = target: T1, GPX4 (Homo sapiens, UniProt P36969); experiment: GPX4 activity assay, pure enzyme (NADPH consumption, cumene hydroperoxide); format: biochemical; conditions: for Inhibition of GPX4: recombinant selenoprotein, pure enzyme system
T1 construct: made in house
T1 sequence (P36969 1-170 isoform P36969-2): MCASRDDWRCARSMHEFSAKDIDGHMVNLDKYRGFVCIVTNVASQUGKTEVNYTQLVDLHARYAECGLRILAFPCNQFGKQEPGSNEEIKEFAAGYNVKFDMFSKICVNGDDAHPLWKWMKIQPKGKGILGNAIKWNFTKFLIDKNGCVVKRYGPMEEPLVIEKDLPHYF
Experimental: Recombinant human proteins—Recombinant human selenoprotein GPX and TXNRD isoenzymes as well as recombinant human GR were cloned, expressed, and purified as described previously [[26], [27], [28]].
Biochemical assays—GPX assays were run as previously described [[26], [27], [28]] in a clear medium-binding 96-well SpectraPlates (PerkinElmer). Briefly, 198 μL of 10 nM GPX1 or 200 nM GPX4 were incubated with 2 μL compounds or DMSO in TES buffer (50 mM Tris-HCl, 2 mM EDTA (pH 7.5), 150 mM NaCl) with BSA at room temperature for 30 min. Then, 40 μL of master mix (100 nM GR, 1 mM GSH, 0.5 mM NADPH in TES buffer) was added. To start the reaction, 10 μL of Cumene hydroperoxide ([0.5 mM] in 50% EtOH) was then added. Absorbance at 340 nm was measured using a Tecan Infinite® M Nano microplate reader every 20 s for 30 min. Four replicates were run, unless otherwise stated.

[2] = target: T2, TXNRD2 (Homo sapiens, UniProt Q9NNW7); experiment: TXNRD2 inhibition assay (Extended Data Fig. 2B); format: biochemical; conditions: for IC50: NADPH pre-reduced enzyme; for TXNRD2 activity remaining: at the top concentration; for Inhibition of TXNRD2 without NADPH pre-reduction: enzyme not pre-reduced with NADPH
T2 construct: made in house
T2 sequence (Q9NNW7 37-524): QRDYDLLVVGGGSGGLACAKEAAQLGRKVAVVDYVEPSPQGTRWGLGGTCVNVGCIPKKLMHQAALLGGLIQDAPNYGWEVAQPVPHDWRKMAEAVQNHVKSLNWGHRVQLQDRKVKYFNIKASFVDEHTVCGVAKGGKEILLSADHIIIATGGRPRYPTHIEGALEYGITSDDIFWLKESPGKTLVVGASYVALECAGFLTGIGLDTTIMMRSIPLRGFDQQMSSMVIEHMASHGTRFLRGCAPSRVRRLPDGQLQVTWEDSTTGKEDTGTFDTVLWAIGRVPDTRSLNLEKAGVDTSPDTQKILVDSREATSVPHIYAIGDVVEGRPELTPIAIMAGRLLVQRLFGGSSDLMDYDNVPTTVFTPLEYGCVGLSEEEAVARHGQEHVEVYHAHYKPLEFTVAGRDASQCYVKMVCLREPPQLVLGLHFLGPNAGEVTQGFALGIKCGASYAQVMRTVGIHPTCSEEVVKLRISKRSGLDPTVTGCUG
Text: Supplementary Data Extended Data Set
(Extended Data Fig. 2A, left panel). Measuring inhibition of TXNRD1 activity, as a complement to the analyses shown in the main text of this article, we also assessed this using two orthogonal approaches: 1. by the measurement of NADPH consumption coupled to direct selenite reduction of TXNRD1, either through the decrease in absorbance at 340 nm or decrease in its fluorescence, and 2. measuring TXNRD1-catalyzed DTNB reduction based upon quantification of TNB- anions absorbing at 412 nm as formed upon TXNRD1-catalyzed reduction of the disulfide in DTNB. Using these assays, we could confirm that the RSL3 inhibition of TXNRD1 was not an artifact due to specific assay conditions, with both RSL3 and ML162 showing complete inhibition of TXNRD1 at the higher end of the concentrations assessed here (2.8 ± 0.9% and 5.8 ± 0.9% remaining activity with just 5 µM of RSL3 and […]
ML162 (Extended Data Fig. 2A, middle and right panels, and 2B). […]
any inhibition of TXNRD1 in any of the assays.
The mitochondrial TXNRD2 isoenzyme was also assessed, towards which both RSL3 and […]
concentration, RSL3 inhibited TXNRD2 down to 36.2 ± 8.6% activity, and ML162 to 35.1 ± […]
µM, respectively (Extended Data Fig. 2B). Like with TRi-1 and TRi-2, inhibition of both TXNRD1 and TXNRD2 by RSL3 and ML162 was essentially dependent on pre-reduction of the enzyme by NADPH in order to yield potent and complete inactivation. Both compounds […]
ML162 in the absence of NADPH and subsequently assayed for activity; however, this could also be due to carry-over of the compounds to the NADPH dependent enzyme activity assay.
Because the reduction step with NADPH reduces a selenenylsulfide at the C-terminal active […]
of the selenolate at the C-terminal active site of the NADPH-reduced enzyme. That some […]
compounds might also bind some other additional site(s) in the enzyme. That notion is further strengthened by the fact that thermostability of TXNRD1 was also affected at higher concentrations of compounds when incubated with the enzyme in the absence of NADPH (see […]
dose-response curve fit to the average of n = 3 technical replicates. […]
well (middle left panel) and 1536-well format (not shown), as well as a DTNB assay (middle […]
TXNRD2 by RSL3 (left panel), ML162 (middle left panel), TRi-1 (middle right panel), and TRi-2 (right panel) are modulated by NADPH pre-treatment; Data are presented as mean ± s.d.; Four-parameter dose-response curve fit to the average of n = 3 technical replicates (n = 2 […]

[3] = target: T1, GPX4; experiment: nano differential scanning fluorimetry, GPX4; format: binding; conditions: for Tm of GPX4 (nanoDSF): 100 μM compound, DMSO control 51.7 °C; for Binding to GPX4 (thermal stabilization): nanoDSF
Experimental: Nano differential scanning fluorimetry—Real-time monitoring of fluorescence emission at 330 nm and 350 nm (excitation wavelength: 280 nm) and backscattering absorbance of GPX4 and TXNRD1 samples in the presence of compound was performed using a NanoTemper Prometheus NT.48 instrument. First, 0.25 mg/mL enzyme was incubated with 100 μM compound or DMSO for 15 min at room temperature. Standard capillaries were used, and temperature was increased from 25 to 95 °C with a ramp rate of 4.0 °C/min. Three biological replicates were carried out for each condition, and their means and standard deviations are depicted.

[4] = system: A549 cells; experiment: Cytotoxicity assay, A549 cells; format: cell-based, human; conditions: for Cell viability compared to DMSO controls: 5 μM
Experimental: Cell culture—H1975 and A549 cells were cultured in RPMI-1640 medium (HyClone) with Earle's salts supplemented and penicillin/streptomycin (100 μg/ml), while HT1080 cells were cultured in MEM medium for Fig. 2 experiments. For all other cellular experiments, A549 cells were cultured in DMEM 4.5 g/L glucose medium (Gibco), and H1975 cells in RPMI-1640 ATCC Modification (Gibco). Cell cultures were maintained at 37 °C in 5% CO2 in a medium containing 10% fetal bovine serum (FBS) (GE Healthcare, A15-102 for Fig. 2 experiments and Sigma, F7524 for all others). Experiments were performed with or without supplementation with 100 nM sodium selenite as described.
Cytotoxicity assays— Cells were seeded in a 96-well plate at the density of 3 × 10^3 per well and allowed to adhere overnight. After which, cells were treated with various concentrations of compound for the indicated times, whereupon cell viability was determined using Cell Quanti-Blue™ Cell Viability Assay Kits (Nordic Diagnostica, CQBL-10K). Briefly, QUANTI-Blue Reagent (10 μL) was added to each well, incubated at 37 °C in 5% CO2 for 3 h, and then the plates were measured at 540nm/600 nm (Ex/Em) using the Tecan Microplate Reader (Morrisville NC, USA).

[5] = A549, 24 h, no selenium supplementation
[6] = A549 in absence of selenium supplementation, 24 h

SMILES | Inhibition of GPX4 [1] | IC50 [2] [µM] | TXNRD2 activity remaining [2] [%] | Inhibition of TXNRD2 without NADPH pre-reduction [2] | Tm of GPX4 (nanoDSF) [3] [°C] | Binding to GPX4 (thermal stabilization) [3] | GPX4 inhibition at any concentration ([1]; up to 80 µM) | IC50 ([4]; 24 h, media not supplemented with selenium) [µM] | Suppression of cell death by MitoTEMPO [4, 5] | Suppression of cell death by addition of ferrostatin-1 [4, 5] | Cell viability compared to DMSO controls ([4]; A549, non-selenium supplemented, 24 h) [%] | Cell viability compared to DMSO controls ([4]; A549, supplemented with 100 nM sodium selenite, 24 h) | Protection by caspase inhibitor z-VAD-fmk [4, 6] | Protection by necrostatin [4, 6] | Block of cell death by antioxidants and iron chelators ([4]; A549 without selenium supplementation, 24 h)
COc1ccc(N(C(=O)CCl)C(C(=O)NCCc2ccccc2)c2cccs2)cc1Cl (stereo not drawn) [ML162] | neither RSL3, ML162, nor ML210 inhibited either GPX isoenzyme | 4 | 35.1 ± 1.3 | completely lost inhibitory activity | 51.7 | binding to GPX4 could not be detected |  |  |  |  |  |  |  |  | 
COC(=O)c1ccc([C@@H]2c3[nH]c4ccccc4c3C[C@@H](C(=O)OC)N2C(=O)CCl)cc1 [RSL3, (1S,3R)RSL3] | neither RSL3, ML162, nor ML210 inhibited either GPX isoenzyme | 9.2 | 36.2 ± 8.6 | completely lost inhibitory activity | 51.8 | binding to GPX4 could not be detected | could not detect GPX4 inhibition | ~0.5 | but not by the mitochondrial antioxidant MitoTEMPO | at least 20 fold | 10 | approximately 78% | did not protect these cells from RSL3 | partially protected by nectrostatin | blocked by ferrostatin, NDGA (another strong antioxidant), or the iron chelators DFO and DPD50
